Data published in US20230310542A1, “EPIGENETIC MODIFIERS TO TREAT RETINAL DEGENERATIONS” (priority 2022, published 2023).

Experiments:
Type in all cases: in vivo, mouse
H3K4me2, H3K9me2 = assay: Chromatin immunoprecipitation (ChIP) on gene regulatory elements, WT retina; conditions: WT mice, GSK PN9 till PN24
Protocol: Lysate preparation for ChIP was carried out. In brief, 10 mouse retinas were rapidly isolated and rinsed in PBS on ice. Cell suspensions in PBS were crosslinked with 1% formaldehyde for 15 min at room temperature, followed by quenching with 1 M glycine, incubation on ice for 5 min, and centrifugation for 7 min at 4,000 rpm at 4° C. Pellets were resuspended in 500 μl L-CHIP buffer (1% SDS, 10 mM EDTA, 50 mM Tris-HCl pH 8.0), 1 mM PMSF and PI, sonicated twice at setting 3 for 10 sec on Sonic Dismembrator (Fisher Scientific, Model 100). Protein concentrations were adjusted to 1 mg/ml with L-CHIP buffer. ChIP was performed and subjected to quantitative PCR, primers for genomic regions are specified in Table 2.

rd10 mice retina = assay: RNA-seq of PN24 retina, rd10 mice
Protocol: RNA was extracted from PN24 retina of WT and rd10 animals treated with saline or GSK from PN9 till PN24. RNA integrity number (RIN) was measured using BioAnalyzer (Agilent Technologies) RNA 6000 Nano Kit to confirm RIN above 7 for each sample. The cDNA libraries were prepared using the Illumina® Stranded mRNA Prep, Ligation kit (Illumina) as per the manufacturer's instructions. Briefly, polyA RNA was purified from 200 ng of total RNA using oligo (dT) beads. The extracted mRNA fraction was subjected to fragmentation, reverse transcription, end repair, 3′— end adenylation, and adaptor ligation, followed by PCR amplification and SPRI bead purification (Beckman Coulter). The unique dual index sequences (IDT® for Illumina® RNA UD Indexes Set A, Ligation, Illumina) were incorporated in the adaptors for multiplexed high-throughput sequencing. The final product was assessed for its size distribution and concentration using BioAnalyzer High Sensitivity DNA Kit (Agilent Technologies). The libraries were pooled and diluted to 3 nM using 10 mM Tris-HCl, pH 8.5, and then denatured using the Illumina protocol. The denatured libraries were loaded onto an S1 flow cell on an Illumina NovaSeq 6000 (Illumina) and run for 2×53 cycles according to the manufacturer's instructions. De-multiplexed and adapter-trimmed sequencing reads were generated using Illumina bcl2fastq (released version 2.20.0) allowing no mismatches in the index read. BBDuk was used to trim/filter low-quality sequences using “qtrim=lr trimq=10 maq=10” option. Next, alignment of the filtered reads to the mouse reference genome (mouse Ensembl release 67 (GRCm37/NCBIM37/mm9)) was done using HISAT2 (version 2.1.0) applying --no-mixed and --no-discordant options. Read counts were calculated using HTSeq by supplementing Ensembl gene annotation (release 67: “Mus_musculus.Ensembl.NCBIM37.67.gtf”). The edgeR R package was used to fit the read counts to the negative binomial model along with the generalized linear model (GLM) and differentially expressed genes were determined by the likelihood ratio test method implemented in the edgeR. […] The ggplot2 R package was used for generating heatmaps. Raw counts and differential expression analysis generated during this study are available at GEO Submission GSE169527.
The Database for Annotation, Visualization, and Integrated Discovery (DAVID) was used for GO functional analysis.

rd10 mice = assay: Rod photoreceptor preservation in rd10 mice (photoreceptor rows in ONL, immunofluorescence)
Protocol: All inhibitors were diluted in 0.9% bacteriostatic sodium chloride (saline).
Retinas were fixed in 4% paraformaldehyde overnight at 4° C., washed in PBS, incubated in 5% sucrose/PBS for 30 min and then cryopreserved in 20% sucrose/PBS overnight at 4° C. Retinas were embedded in 2:1 mix of 20% sucrose and OCT (Sakura Finetek Torrance, CA) and stored at −80° C. Blocks with tissue samples were sectioned to 7-10 μm on a Cryostat Microtome HM550 (Thermo Fisher Scientific) and stored at −20° C. Antigen retrieval was performed by incubating the slides in 10 mM sodium citrate pH 6 for 30 min at 80° C. Double labeling immunohistochemistry was performed using fluorescent Alexa Fluor-conjugated secondary antibodies diluted 1:800 (Invitrogen, Carlsbad, California). Primary antibodies were diluted as follow: anti-H3K4me2 1:600, anti-H3K9me2 1:600, anti-RHO 1:50, anti-OPN1SW 1:400, anti-GFAP 1:1000, anti-IBA1 1:450 (AifI gene). […] The acquisition parameters were maintained constant for each set of experiments. Fluorescence intensity was assessed using ImageJ software (Bethesda, MD).

[1] = GSK PN9 till PN24 vs saline, FDR<0.05, fold change >2 or <0.5

## O=C(O)c1ccc(CN2CCC(CN[C@@H]3C[C@H]3c3ccccc3)CC2)cc1 [GSK, GSK2879552]
H3K4me2, H3K9me2
  H3K4me2 at promoters/regulatory elements (Ccnd1, Sox2, Hes1, Rho, Pde6b): increase in the methylation of H3K4
  H3K9me2 at regulatory elements of progenitor TF and rod specific genes: losing this inhibitory mark
rd10 mice retina; [1]
  number of genes downregulated: 369 genes
  number of genes upregulated: 719 genes
rd10 mice retina; GSK, p<0.05, fold change >1.75 or <0.8
  genes simultaneously upregulated in rd10 and WT mice retina: approximately 150 genes
rd10 mice retina; rd10+GSK retina
  expression of genes specific for rod photoreceptors: returned to normal expression levels
rd10 mice retina; rd10+GSK vs rd10
  IPA canonical pathways, upregulated: major upregulated pathway is the phototransduction pathway
rd10 mice retina; rd10+GSK vs rd10, next 4 most important pathways
  IPA canonical pathways, down regulated: down regulated pathways were all related to neuroinflammation
rd10 mice retina; rd10+GSK, Atp6v0d2, Mcoln3, Cd5l, Ctsd, C1qa, Fcrls, Hexb, Gpr34, Junb, Pclaf, Birc5
  expression of resident microglia markers: went back to normal levels of expression
rd10 mice retina; rd10+GSK, H2-Aa, cd74, H2-Ab1, H2-Eb1, Cx3cr1 and others
  expression of markers of infiltrating immune cells: returned to normal levels of expression
rd10 mice retina; rd10 under GSK inhibition
  expression of amacrine cell markers Clrn1 and Efemp1: down-regulated
  expression of cell death genes Capn9, Casp1, 12, AifI: downregulated
rd10 mice retina; rd10 under GSK inhibition, did not reach threshold conditions
  expression of Gfap: decreased
rd10 mice; GSK 1.5 mg/kg i.p. daily, data not shown
  rows of photoreceptors remaining in the ONL: 5-6 rows
rd10 mice; GSK 4.2 mg/kg PN9 till PN24, vs saline
  RHO protein staining: increased
rd10 mice; GSK 4.2 mg/kg each second day (ESD), PN9 till PN24
  photoreceptor survival with dosing each second day: survived to essentially the same extent as with treatment each day
rd10 mice; GSK 4.2 mg/kg i.p. daily PN9 till PN24
  rows of photoreceptors preserved in the ONL at PN24: more than 10 rows
rd10 mice; GSK from PN9 to PN17, examined at PN17
  rod degeneration at end of short treatment: minimal degeneration
rd10 mice; GSK from PN9 to PN17, examined at PN24
  rod degeneration one week after ending treatment: substantial loss of photoreceptors
rd10 mice; GSK from PN9 to PN24, examined at PN45
  rod degeneration 21 days after ending treatment: substantial loss of cells
rd10 mice; GSK from PN15 to PN24, assayed at PN24
  rod degeneration, late start of treatment: blocked further degeneration
